From patent US7112607B2, “Allosteric adenosine receptor modulators” (King Pharmaceuticals Research & Development, Inc., priority 1997, dated 2006)

Target: T1, human recombinant A1 adenosine receptors (Homo sapiens, UniProt P30542)
T1 construct: expressed in transfected cells; host or cells: Chinese hamster ovary (CHO) cells, CHO:huA1, G-418 selected
T1 sequence (P30542 1-326): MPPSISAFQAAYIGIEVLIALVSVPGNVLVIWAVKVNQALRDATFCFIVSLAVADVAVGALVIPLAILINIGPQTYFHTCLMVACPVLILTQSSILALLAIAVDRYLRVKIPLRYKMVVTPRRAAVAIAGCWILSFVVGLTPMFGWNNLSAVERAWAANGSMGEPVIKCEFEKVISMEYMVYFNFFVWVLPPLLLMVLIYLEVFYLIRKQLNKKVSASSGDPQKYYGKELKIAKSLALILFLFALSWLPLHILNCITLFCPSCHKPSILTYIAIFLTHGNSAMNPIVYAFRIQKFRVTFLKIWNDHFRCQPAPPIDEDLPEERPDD
Experiment: Allosteric enhancement: reduction of cAMP content of CHO:huA1 cells (radioimmunoassay)
Type: cell-based
Conditions: forskolin 1 μM, rolipram 20 μM, CPA 0.01 nM, adenosine deaminase, 6 min at 36° C.; for inhibition at 0.01 µM / inhibition at 0.1 µM / inhibition at 1 µM / inhibition at 10 µM: 0.1 h, read-out: Change in cAMP Content from Control (mean + SEM)
Description: Chinese hamster ovary cells expressing human recombinant A1 adenosine receptors (CHO:huA1 cells) at a density of approximately 8000 fmol/mg protein were prepared as previously described (Kollias-Baker et al., (1997), J. Pharmacol. Exp. Ther. 281: 761–768) and aliquots of the cells at low passage numbers were frozen and stored in liquid nitrogen. When compounds were tested, an aliquot of CHO:huA1 cells were rapidly thawed after removal from liquid nitrogen, then grown in Ham's F12 culture medium with 10% fetal bovine serum and 0.5 mg/mL of antibiotic G-418 (Shryock, Ozeck, and Belardinelli (1998), Mol. Pharmacol 53: 886–893). Cells were passaged thrice weekly. Aliquots of cells were placed into 12-well plates with culture medium, serum, and antibiotic for 48 hours, by which time the cells had grown to a confluent monolayer.
Allosteric enhancement was measured as the action of a test compound at different concentrations (0.01, 0.1, 1 and 10 μM) to reduce the cAMP content of CHO:huA1 cells. To initiate an experiment, growth medium was removed from the 12-well plates and cells were washed once with warm Hanks' buffered saline. The wash solution was then removed and replaced with fresh Hanks' solution containing forskolin (1 μM), rolipram (20 μM), N^6-cyclopentyladenosine (CPA, 0.01 nM), adenosine deaminase (2 U/mL), and the test compound. Forskolin was used to stimulate the activity of adenylyl cyclase, rolipram to inhibit cAMP phosphodiesterase, adenosine deaminase to degrade endogenous adenosine, and CPA to cause a small increase of the number of activated adenosine receptors. After 6 min of incubation at 36° C. in the presence of test compound, the incubation solution was removed and hydrochloric acid (final concentration 50 mM) was added to terminate drug action.
The content of cAMP in acidified extracts of cells was determined by radioimmunoassay as previously described (Kollias-Baker et al., (1997), J. Pharmacol. Exp. Ther. 281: 761–768). Because the magnitude of the effects of allosteric enhancers on CHO:huA1 cells changed subtly with passage number and differed slightly among different aliquots of cells, the actions of the test compounds and the action of a reference compound (PD 81,723) were assessed in each experiment. The effect of each test compound on cAMP content is presented in Table 1 as a percentage of the value of cAMP content in the absence of drug (control, 100%). Each value is a mean±standard error of 6 determinations in each of the number of experiments indicated in the “n” column of the table.

| Structure (SMILES) | inhibition at 0.01 µM (0.01 μM test compound) | inhibition at 0.1 µM (0.1 μM test compound) | inhibition at 1 µM (1 μM test compound) | inhibition at 10 µM (10 μM test compound) | Change in cAMP Content from Control (mean + SEM) (0.01 μM test compound) | Change in cAMP Content from Control (mean + SEM) (0.1 μM test compound) | Change in cAMP Content from Control (mean + SEM) (1 μM test compound) | Change in cAMP Content from Control (mean + SEM) (10 μM test compound) |
| --- | --- | --- | --- | --- | --- | --- | --- | --- |
| Nc1sc2c(c1C(=O)c1ccccc1)CCSC2 [Example 1, (2-Amino-4,7-dihydro-5H-thieno[2,3-c]thiopyran-3-yl)-phenyl-methanone] | -9 ± 4% | 6 ± 3% | 15 ± 2% | 35 ± 2% | – | – | – | – |
| Nc1sc2c(c1C(=O)c1ccc(Cl)cc1)CCSC2 [Example 2, (2-Amino-4,7-dihydro-5H-thieno[2,3-c]thiopyran-3-yl)-(4-chlorophenyl)-methanone] | -15 ± 3% | 10 ± 4% | -16 ± 5% | 0.3 ± 5% | – | – | – | – |
| Nc1sc2c(c1C(=O)c1ccc(Cl)cc1)CCS2 [Example 3, (2-Amino-4,5-dihydrothieno[2,3-b]thiophen-3-yl)-(4-chlorophenyl)-methanone] | 1 ± 4% | -11 ± 4% | -1 ± 3% | 35 ± 4% | – | – | – | – |
| Nc1sc2c(c1C(=O)c1ccco1)CCCC2 [Example 4, (2-Amino-4,5,6,7-tetrahydrobenzo[b]thiophen-3-yl)-furan-2-yl-methanone] | 10 ± 2% | -2 ± 6% | 3 ± 6% | 10 ± 7% | – | – | – | – |
| Nc1sc2c(c1C(=O)c1cccs1)CCCC2 [Example 5] | – | – | – | – | −11 ± 3% | −11 ± 5% | −16 ± 3% | −40 ± 2% |
| Nc1sc2c(c1C(=O)c1cccc3ccccc13)CCCC2 [Example 6, (2-Amino-4,5,6,7-tetrahydrobenzo[b]thiophen-3-yl)-naphthalen-1-yl-methanone] | 11 ± 4% | 15 ± 4% | 22 ± 3% | 52 ± 3% | – | – | – | – |
| Nc1sc2c(c1C(=O)c1cccc3ccccc13)CCC2 [Example 7, (2-Amino-5,6-dihydro-4H-cyclopenta[b]thiophen-3-yl)-naphthalen-1-yl-methanone] | 0.6 ± 3% | 6 ± 1% | 29 ± 4% | 60 ± 1% | – | – | – | – |
| Cc1sc(N)c(C(=O)c2cccc3ccccc23)c1C [Example 8, (2-Amino-4,5-dimethylthiophen-3-yl)-naphthalen-1-yl-methanone] | 0.6 ± 2% | 3 ± 3% | -6 ± 5% | 45 ± 2% | – | – | – | – |
| Nc1sc2c(c1C(=O)c1cccc3ccccc13)CCN(Cc1ccccc1)C2 [Example 9, (2-Amino-6-benzyl-4,5,6,7-tetrahydrothieno[2,3-c]pyridin-3-yl)-naphthalen-1-yl-methanone] | 21 ± 3% | 7 ± 4% | 25 ± 4% | -19 ± 2% | – | – | – | – |
| CC(=O)Nc1sc2c(c1C(=O)c1ccco1)CCCC2 [Example 10, N-[3-(Furan-2-carbonyl)-4,5,6,7-tetrahydrobenzo[b]thiophen-2-yl]-acetamide] | 8 ± 5% | 14 ± 4% | 25 ± 5% | -8 ± 5% | – | – | – | – |

Next, values leading:

| inhibition at 0.01 µM (0.01 μM test compound) | inhibition at 0.1 µM (0.1 μM test compound) | inhibition at 1 µM (1 μM test compound) | inhibition at 10 µM (10 μM test compound) | Change in cAMP Content from Control (mean + SEM) (0.01 μM test compound) | Change in cAMP Content from Control (mean + SEM) (0.1 μM test compound) | Change in cAMP Content from Control (mean + SEM) (1 μM test compound) | Change in cAMP Content from Control (mean + SEM) (10 μM test compound) | Structure (SMILES) |
| --- | --- | --- | --- | --- | --- | --- | --- | --- |
| -3 ± 4% | 14 ± 4% | 0.8 ± 3% | 23 ± 2% | – | – | – | – | Nc1sc2c(c1C(=O)c1ccco1)CCC2 [Example 11, (2-Amino-5,6-dihydro-4H-cyclopenta[b]thiophen-3-yl)-furan-2-yl-methanone] |
| 27 ± 4% | 0.6 ± 4% | 15 ± 3% | 8 ± 11% | – | – | – | – | Nc1sc2c(c1C(=O)c1ccco1)CCN(Cc1ccccc1)C2 [Example 12, (2-Amino-6-benzyl-4,5,6,7-tetrahydrothieno[2,3-c]pyridin-3-yl)-furan-2-yl-methanone] |
| 4 ± 5% | -11 ± 5% | 7 ± 5% | -5 ± 10% | – | – | – | – | Cc1sc(N)c(C(=O)c2ccco2)c1C [Example 13, (2-Amino-4,5-dimethylthiophen-3-yl)-furan-2-yl-methanone] |
| 13 ± 5% | 3 ± 4% | 4 ± 3% | 5 ± 4% | – | – | – | – | Nc1sc2c(c1C(=O)c1cc3ccccc3o1)CCCC2 [Example 14, (2-Amino-4,5,6,7-tetrahydrobenzo[b]thiophen-3-yl)-benzofuran-2-yl-methanone] |
| 5 ± 3% | 13 ± 3% | -3 ± 5% | 4 ± 6% | – | – | – | – | Nc1sc2c(c1C(=O)c1cc3ccccc3o1)CCC2 [Example 15, (2-Amino-5,6-dihydro-4H-cyclopenta[b]thiophen-3-yl)-benzofuran-2-yl-methanone] |
| -4 ± 3% | -14 ± 4% | 10 ± 2% | -11 ± 4% | – | – | – | – | Nc1sc2c(c1C(=O)c1cc3ccccc3o1)CCN(Cc1ccccc1)C2 [Example 16, (2-Amino-6-benzyl-4,5,6,7-tetrahydrothieno[2,3-c]pyridin-3-yl)-benzofuran-2-yl-methanone] |
| – | – | – | – | −3 ± 4% | 0.8 ± 7% | −1 ± 6% | 2 ± 7% | Nc1sc2c(c1C(=O)c1ccccn1)CCC2 [Example 17] |
| -6 ± 5% | 7 ± 4% | -16 ± 5% | -7 ± 6% | – | – | – | – | Cc1sc(N)c(C(=O)c2cc3ccccc3o2)c1C [Example 18, (2-Amino-4,5-dimethylthiophen-3-yl)-benzofuran-2-yl-methanone] |
| 2 ± 4% | 8 ± 5% | 11 ± 5% | -8 ± 3% | – | – | – | – | Nc1sc2c(c1C(=O)c1ccccn1)CCCC2 [Example 19, (2-Amino-4,5,6,7-tetrahydrobenzo[b]thiophen-3-yl)-pyridin-2-yl-methanone] |
| -2 ± 4% | -7 ± 5% | -0.1 ± 5% | -31 ± 3% | – | – | – | – | Nc1sc2c(c1C(=O)c1ccccn1)CCN(Cc1ccccc1)C2 [Example 20, (2-Amino-6-benzyl-4,5,6,7-tetrahydrothieno[2,3-c]pyridin-3-yl)-pyridin-2-yl-methanone] |
| -0.7 ± 3% | 8 ± 3% | -4 ± 4% | -14 ± 4% | – | – | – | – | Cc1sc(N)c(C(=O)c2ccccn2)c1C [Example 21, (2-Amino-4,5-dimethylthiophen-3-yl)-pyridin-2-yl-methanone] |
| -3 ± 3% | -19 ± 5% | 14 ± 5% | 67 ± 3% | – | – | – | – | Nc1sc2c(c1C(=O)c1ccc(Br)c3ccccc13)CCC2 [Example 22, (2-Amino-5,6-dihydro-4H-cyclopenta[b]thiophen-3-yl)-(4-bromonaphthalen-1-yl)-methanone] |
| – | – | – | – | −6 ± 3% | −3 ± 4% | −8 ± 4% | −35 ± 3% | COc1ccc(C(=O)c2c(N)sc3c2CCC3)c2ccccc12 [Example 23] |
